{"source": "patent US20080194462A1", "about": "“Methods and Compositions for Treatment of Autoimmune Diseases” (Peptimmune, Inc., priority 2004, published 2008)", "key": {"[1]": {"tested_on": "Non-obese diabetic (NOD) mouse", "assay": "Treatment of NOD mice, development of diabetes", "assay_type": "in vivo", "details": "10 μg injected three times a week", "procedure": "NOD mice are obtained from Jackson Laboratories, Bar Harbor, Me., and are used as an experimental system (Shi et al. (2001) Proc. Natl. Acad. Sci. USA 98: 6777-6782). These mice begin to develop diabetes at about 13-15 weeks and data are obtained after about 30 weeks to obtain data, such as a frequency of symptoms for comparison of treated and untreated groups of mice. NOD mice were treated herein with Copaxone®, and no difference was found between the untreated animals and animals treated with Copaxone®. In the experiment, 10 μg of Copaxone® was injected into mice three times a week (equivalent to the human dose on a weight ratio basis. A higher dose, 33 μg Copaxone®/mouse three times a week, is also employed. These experiments test the hypothesis that Copaxone® would be ineffective."}, "T cells": {"tested_on": "T cells", "details": "cited from earlier work"}}}
{"substance": "Glatiramer acetate", "values": [{"measurement": "difference between untreated and treated NOD mice (diabetes)", "setting": "[1]", "value": "no difference"}, {"measurement": "proportion of an individual's T cells activated", "setting": "T cells; HLA-DR restricted", "value": "15-20%"}, {"measurement": "T cell response generated through HLA-DQ molecules", "setting": "T cells", "value": "little response"}]}
